# Patent US11993640B2, “Treating inflammatory lung disease” (United States Government as represented by the Department …, priority 2019, dated 2024)
# Non-standard residues stand in square brackets, D forms with d. Residues, ends and D or L forms follow the SMILES beside them. *: point of attachment. Phe(F5) = N[C@@H](Cc1c(F)c(F)c(F)c(F)c1F)C(=O)O; hArg = N=C(N)NCCCC[C@H](N)C(=O)O; 12Ado = NCCCCCCCCCCCC(=O)O; Nle = CCCC[C@H](N)C(=O)O; Orn = NCCC[C@H](N)C(=O)O; Abu = CC[C@H](N)C(=O)O; PhAc = O=C(Cc1ccccc1)*
# Key:
# [1] = tested on: C57Bl/6J mice treated with bleomycin; test: Bleomycin lung injury model, micro-CT of lungs; assay type: in vivo, mouse; conditions: bleomycin plus MIA-602
# Experimental: (§1) Experimental animals. 8-week old C57Bl/6J male mice (The Jackson Laboratory, Bar Harbor, ME) were used in these experiments. Mice weighed about 26 grams at the start. Mice were randomly allocated to the experimental groups and housed in identical filter top cages in a ventilated rack. Mice were exposed to a 12-hour light/dark cycle and had free access to standard laboratory chow and water.
# (§2) Bleomycin and GHRH-R antagonist treatment. Mice were treated with 0.8 units of bleomycin (Bleomycin for Injection USP, Hospira, Lake Forest, IL) intraperitoneally (IP) on days 1, 3, 7, 10, 14 and 21 (Collins S, Chan-Li Y, Oh M, Vigeland C, Limjunyawong N, Mitzner W, Powell J D, Horton M R (2016). JCI Insight 1(4):1-13). Mice (randomly assigned) were simultaneously treated subcutaneously (sc) with MIA-602 (5 μg/day) or its vehicle (100 μL/day). MIA-602 was dissolved in DMSO (ACS grade; Sigma-Aldrich) and diluted 1:500 in normal saline for daily sc injection on days 0-21.
# (§3) Tissue preparations. Mice were killed by CO2 inhalation before any treatment, or on days 14 or 28 for micro-CT scans of lungs and harvesting of lung tissue (Vande Velde G, Poelmans J, De Langhe E, Hillen A, Vanoirbeek J, Himmelreich U, Lories R (2016). Dis Model Mech 9:91). […]
# Micro-CT. Mice in each group were assessed by micro-CT scans (Bruker SkyScan 1176 Low Dose Micro-CT, Knotich, Belgium) of the lungs after CO2 inhalation. […]
# [2] = tested on: C57Bl/6J mice treated with bleomycin; test: Bleomycin lung injury model, lung hydroxyproline assay; assay type: in vivo, mouse
# Experimental: as §1, §2, §3
# Hydroxyproline assay. […] Hydroxyproline was measured colorimetrically (560 nm) after hydrolysis using an assay kit (MAK008, Sigma-Aldrich, St. Louis, MO). […]
smiles,measurement,setting,value
"CCCC[C@H](NC(=O)[C@@H](NC(=O)[C@H](CC(=O)O)NC(=O)[C@H](CCC(N)=O)NC(=O)[C@H](CC(C)C)NC(=O)[C@H](CC(C)C)NC(=O)[C@H](CCCN)NC(=O)[C@H](Cc1c[nH]cn1)NC(=O)[C@H](C)NC(=O)[C@H](CO)NC(=O)[C@H](CC(C)C)NC(=O)[C@H](CCC(N)=O)NC(=O)[C@H](CC)NC(=O)[C@H](CC(C)C)NC(=O)[C@@H](NC(=O)[C@H](CCCN)NC(=O)[C@H](Cc1c[nH]cn1)NC(=O)[C@H](Cc1ccc(OC)cc1)NC(=O)[C@H](CCCCNC(=N)N)NC(=O)[C@H](C)NC(=O)[C@@H](NC(=O)[C@H](Cc1c(F)c(F)c(F)c(F)c1F)NC(=O)[C@@H](NC(=O)[C@H](C)NC(=O)[C@H](CC(=O)O)NC(=O)[C@@H](CCCNC(=N)N)NC(=O)[C@H](Cc1ccc(O)cc1)NC(=O)CCCCCCCCCCCNC(=O)Cc1ccccc1)[C@@H](C)CC)[C@@H](C)O)C(C)C)[C@@H](C)CC)C(=O)N[C@H](CCCNC(=N)N)C(=O)N[C@@H](CCCCNC(=N)N)C(N)=O [MIA-602, PhAC-Ada, Tyr D-Arg, Asp, Ala, Ile, 5FPhe, Thr, Ala, Har, Tyr(Me), His, Orn, Val, Leu, Abu, Gin, Leu, Ser, Ala, His, Orn, Leu, Leu, Gin, Asp, Ile, Nle, D-Arg, Har NH2, reference compound] ({PhAc-12Ado}-Y[dR]DAI[Phe(F5)]TA[hArg]Y(Me)H[Orn]VL[Abu]QLSAH[Orn]LLQDI[Nle][dR][hArg]-NH2)",Infiltrative densities in lungs on micro-CT,[1],less prominent infiltrative densities
same,Lung hydroxyproline (HP) content,"[2]; day 14, MIA-602 5 μg/day sc, bleomycin IP",did not increase significantly
same,Lung hydroxyproline (HP) content,"[2]; day 28, MIA-602 5 μg/day sc days 1-21, bleomycin IP, compared to naive",No significant increase in HP content
